Legend:
[1] = system: KRas-mediated phosphorylation of ERK in H358 cells; experiment: Inhibition of KRas-mediated phosphorylation of ERK (Cisbio HTRF pERK), H358 cells; format: cell-based; conditions: Homo sapiens, NCI-H358, HTRF pERK
Procedure, shortened: (§1)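 Following a 3-hr exposure of cells to serially diluted compound (from 10 uM, 3-fold, 10 doses), cold lysis for 40 mins preceded a 2-hr room-temperature HTRF immunoassay for phosphorylated ERK.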

[2] = system: KRas-mediated phosphorylation of ERK in HCT116 cells; experiment: Inhibition of KRas-mediated phosphorylation of ERK (Cisbio HTRF pERK), HCT116 cells; format: cell-based; conditions: Homo sapiens, HCT-116, HTRF pERK
Procedure, shortened: (§2)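 Min control wells contained 0.2 uM Trametinib, while test compounds ran as 10 doses (3-fold, top 10 uM; 0.8% DMSO final) on cells for 3 hrs. After 40 mins lysis at 4° C, lysates were probed with HTRF antibodies for 2 hrs at room temperature.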

KRas^G12C = target: T1, KRas^G12C (Homo sapiens, UniProt P01116, G12C); experiment: KRas binding assay (TR-FRET tracer displacement), KRas G12C; conditions: TR-FRET tracer displacement, KRas G12C
T1 construct: Biotinylated KRas (corresponding to amino acids 1-169, produced at Accelegan Inc.); biotin (biotinylated); purchased Accelegan Inc

KRas^G12S = target: T2, KRas^G12S (Homo sapiens, UniProt P01116, G12S); experiment: KRas binding assay (TR-FRET tracer displacement), KRas G12S; conditions: TR-FRET tracer displacement, KRas G12S
T2 construct: Biotinylated KRas (corresponding to amino acids 1-169, produced at Accelegan Inc.); biotin (biotinylated); purchased Accelegan Inc

[3] = system: KRas-mediated phosphorylation of ERK in PSN1 cells; experiment: Inhibition of KRas-mediated phosphorylation of ERK (Cisbio HTRF pERK), PSN1 cells; format: cell-based; conditions: Homo sapiens
Procedure, shortened: (§3)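 Phospho-ERK is quantified by HTRF with the Advanced pERK kit. Cells go in at 6,000/well in RPMI plus 10% FBS overnight at 37° C. under 5% CO2, with a 4-hour covered room-temperature incubation ahead of the read.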

[4] = system: KRas-mediated phosphorylation of ERK in H727 cells; experiment: Inhibition of KRas-mediated phosphorylation of ERK (Cisbio HTRF pERK), H727 cells; format: cell-based; conditions: Homo sapiens, NCI-H727, H727 cells; HTRF pERK
Procedure, shortened: as §1

KRas^WT = target: T3, KRas^WT (Homo sapiens, UniProt P01116); experiment: KRas binding assay (TR-FRET tracer displacement), KRas WT; conditions: TR-FRET tracer displacement, KRas WT
T3 construct: Biotinylated KRas (corresponding to amino acids 1-169, produced at Accelegan Inc.); biotin (biotinylated); purchased Accelegan Inc

[5] = system: KRas-mediated phosphorylation of ERK in AsPC-1 cells; experiment: Inhibition of KRas-mediated phosphorylation of ERK (Cisbio HTRF pERK), AsPC-1 cells; format: cell-based; conditions: Homo sapiens, ASPC1, AsPC-1 cells; HTRF pERK
Procedure, shortened: as §1

KRas^G12V = target: T4, KRas^G12V (Homo sapiens, UniProt P01116, G12V); experiment: KRas binding assay (TR-FRET tracer displacement), KRas G12V
T4 construct: Biotinylated KRas (corresponding to amino acids 1-169, produced at Accelegan Inc.); biotin (biotinylated); purchased Accelegan Inc

KRas^G12D = target: T5, KRas^G12D (Homo sapiens, UniProt P01116, G12D); experiment: KRas binding assay (TR-FRET tracer displacement), KRas G12D
T5 construct: Biotinylated KRas (corresponding to amino acids 1-169, produced at Accelegan Inc.); biotin (biotinylated); purchased Accelegan Inc

[6] = system: KRas-mediated phosphorylation of ERK in H460 cells; experiment: Inhibition of KRas-mediated phosphorylation of ERK (Cisbio HTRF pERK), H460 cells; format: cell-based; conditions: Homo sapiens, NCI-H460, HTRF pERK
Procedure, shortened: as §1

[7] = system: KRas-mediated phosphorylation of ERK in A549 cells; experiment: Inhibition of KRas-mediated phosphorylation of ERK (Cisbio HTRF pERK), A549 cells; format: cell-based; conditions: Homo sapiens, HTRF pERK
Procedure, shortened: as §2

[8] = system: KRas-mediated phosphorylation of ERK in MKN1 cells; experiment: Inhibition of KRas-mediated phosphorylation of ERK (Cisbio HTRF pERK), MKN1 cells; format: cell-based; conditions: Homo sapiens, MKN-1
Procedure, shortened: as §3

T2 sequence (P01116 1-169 isoform P01116-2 G12S): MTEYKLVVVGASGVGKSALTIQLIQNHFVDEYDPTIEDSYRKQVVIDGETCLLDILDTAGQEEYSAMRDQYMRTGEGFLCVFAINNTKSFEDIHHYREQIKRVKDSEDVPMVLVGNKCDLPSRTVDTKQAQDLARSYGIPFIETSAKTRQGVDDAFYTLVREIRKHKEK
T5 sequence (P01116 1-169 isoform P01116-2 G12D): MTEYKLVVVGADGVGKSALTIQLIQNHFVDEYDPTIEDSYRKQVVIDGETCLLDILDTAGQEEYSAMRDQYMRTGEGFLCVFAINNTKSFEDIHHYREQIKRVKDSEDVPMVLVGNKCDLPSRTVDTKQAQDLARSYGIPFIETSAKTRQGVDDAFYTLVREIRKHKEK
T3 sequence (P01116 1-169 isoform P01116-2): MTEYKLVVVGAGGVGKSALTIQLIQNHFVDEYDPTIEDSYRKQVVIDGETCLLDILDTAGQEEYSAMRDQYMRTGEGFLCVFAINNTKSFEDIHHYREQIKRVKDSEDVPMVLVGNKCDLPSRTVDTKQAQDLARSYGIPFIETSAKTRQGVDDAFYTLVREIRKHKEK
T4 sequence (P01116 1-169 isoform P01116-2 G12V): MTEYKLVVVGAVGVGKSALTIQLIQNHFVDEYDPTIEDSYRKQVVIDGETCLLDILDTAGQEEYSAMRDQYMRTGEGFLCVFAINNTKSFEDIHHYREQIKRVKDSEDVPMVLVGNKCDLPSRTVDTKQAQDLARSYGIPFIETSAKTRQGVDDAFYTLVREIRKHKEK
T1 sequence (P01116 1-169 isoform P01116-2 G12C): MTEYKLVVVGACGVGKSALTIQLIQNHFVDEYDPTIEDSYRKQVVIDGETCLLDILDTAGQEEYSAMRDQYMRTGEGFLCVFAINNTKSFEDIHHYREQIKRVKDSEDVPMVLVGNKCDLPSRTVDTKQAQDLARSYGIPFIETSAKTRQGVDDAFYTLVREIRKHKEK

| SMILES | IC50 [1] | IC50 [2] | IC50 (KRas^G12C) | IC50 (KRas^G12S) | IC50 [3] | IC50 [4] | IC50 (KRas^WT) | IC50 [5] | IC50 (KRas^G12V) | IC50 (KRas^G12D) | IC50 [6] | IC50 [7] | IC50 [8] |
| --- | --- | --- | --- | --- | --- | --- | --- | --- | --- | --- | --- | --- | --- |
| CCc1c(F)ccc2cc(O)cc(-c3ncc4c(N5CCC[C@@](C)(O)C5)nc(OC[C@@]56CCCN5CC(=C(F)F)C6)nc4c3F)c12 (single isomer, unassigned) [Example 918] | 3 nM | 12 nM | < 2 nM | < 2 nM | 490 nM | 17 nM | < 2 nM | 3 nM | < 2 nM | < 2 nM | 5 nM | 4 nM | 1 nM |
| CCc1c(F)ccc2cc(O)cc(-c3ncc4c(N5CCC[C@@](C)(O)C5)nc(OC[C@]56CCCN5CC(=C(F)F)C6)nc4c3F)c12 (single isomer, unassigned) [Example 919] | 14 nM | 37 nM | < 2 nM | < 2 nM | 2480 nM | 43 nM | < 2 nM | 14 nM | < 2 nM | < 2 nM | 10 nM | 19 nM | 3 nM |
| C=C1CN2CCCC2(COc2nc(N3CCCC(C)(O)C3)c3cnc(-c4cc(O)cc5ccc(F)c(CC)c45)c(F)c3n2)C1 (stereo in doubt) [Example 797, (3R)-1-(7-(8-ethyl-7-fluoro-3-hydroxynaphthalen-1-yl)-8-fluoro-2-((2-methylenetetrahydro-1H-pyrrolizin-7a(5H)-yl)methoxy)pyrido[4,3-d]pyrimidin-4-yl)-3-methylpiperidin-3-ol] | 1 nM | 10 nM | < 2 nM | < 2 nM | 296 nM | 4 nM | < 2 nM | 1 nM | < 2 nM | < 2 nM | 3 nM | 3 nM |  |
| CCc1c(F)ccc2cc(O)cc(-c3ncc4c(N5C[C@@H]6C[C@H](C5)[C@H](O)C6)nc(OCC56CC(F)CN5CC(F)C6)nc4c3F)c12 (stereo partly drawn) [Example 923, (1R,5R,6R)-3-(2-((2,6-difluorotetrahydro-1H-pyrrolizin-7a(5H)-yl)methoxy)-7-(8-ethyl-7-fluoro-3-hydroxynaphthalen-1-yl)-8-fluoropyrido[4,3-d]pyrimidin-4-yl)-3-azabicyclo[3.2.1]octan-6-ol] |  |  | 7 nM | 5 nM | > 10000 nM | 125 nM | 8 nM | 365 nM | 4 nM | 18 nM |  |  | 9 nM |
| CCc1c(F)ccc2cc(O)cc(-c3ncc4c(N5C[C@@H]6C[C@H](C5)[C@H](O)C6)nc(OCC56CCCN5CC(F)(F)C6)nc4c3F)c12 (stereo partly drawn) [Example 924, (1R,5R,6R)-3-(2-((2,2-difluorotetrahydro-1H-pyrrolizin-7a(5H)-yl)methoxy)-7-(8-ethyl-7-fluoro-3-hydroxynaphthalen-1-yl)-8-fluoropyrido[4,3-d]pyrimidin-4-yl)-3-azabicyclo[3.2.1]octan-6-ol] |  |  | 7 nM | 5 nM | > 10000 nM | 118 nM | 7 nM | 262 nM | 4 nM | 14 nM |  |  | 14 nM |

Other lines, results leading:

| IC50 [1] | IC50 [2] | IC50 (KRas^G12C) | IC50 (KRas^G12S) | IC50 [3] | IC50 [4] | IC50 (KRas^WT) | IC50 [5] | IC50 (KRas^G12V) | IC50 (KRas^G12D) | IC50 [6] | IC50 [7] | IC50 [8] | SMILES |
| --- | --- | --- | --- | --- | --- | --- | --- | --- | --- | --- | --- | --- | --- |
|  |  | 4 nM | 3 nM | > 10000 nM | 302 nM | 3 nM | 826 nM | 2 nM | 6 nM |  |  | 9 nM | CCc1c(F)ccc2cc(O)cc(-c3ncc4c(N5C[C@@H]6C[C@H](C5)[C@H](O)C6)nc(OC[C@@]56CCCN5C[C@@H](OC)C6)nc4c3F)c12 [Example 925, (1R,5R,6R)-3-(7-(8-ethyl-7-fluoro-3-hydroxynaphthalen-1-yl)-8-fluoro-2-(((2S,7aS)-2-methoxytetrahydro-1H-pyrrolizin-7a(5H)-yl)methoxy)pyrido[4,3-d]pyrimidin-4-yl)-3-azabicyclo[3.2.1]octan-6-ol] |
|  |  | < 2 nM | < 2 nM | 3000 nM | 29 nM | < 2 nM | 66 nM | < 2 nM | 2 nM |  |  | 0.7 nM | CCc1c(F)ccc2cc(O)cc(-c3ncc4c(N5C[C@@H]6C[C@H](C5)[C@H](O)C6)nc(OC[C@@]56CCCN5C[C@H](OC)C6)nc4c3F)c12 [Example 926, (1R,5R,6R)-3-(7-(8-ethyl-7-fluoro-3-hydroxynaphthalen-1-yl)-8-fluoro-2-(((2R,7aS)-2-methoxytetrahydro-1H-pyrrolizin-7a(5H)-yl)methoxy)pyrido[4,3-d]pyrimidin-4-yl)-3-azabicyclo[3.2.1]octan-6-ol] |
|  |  | 7 nM | 5 nM | > 10000 nM | 202 nM | 6 nM | 468 nM | 4 nM | 13 nM |  |  | 17 nM | CCc1c(F)ccc2cc(O)cc(-c3ncc4c(N5C[C@@H]6C[C@H](C5)[C@H](O)C6)nc(OC[C@@]56CCCN5C[C@@H](F)C6)nc4c3F)c12 [Example 927, (1R,5R,6R)-3-(7-(8-ethyl-7-fluoro-3-hydroxynaphthalen-1-yl)-8-fluoro-2-(((2S,7aS)-2-fluorotetrahydro-1H-pyrrolizin-7a(5H)-yl)methoxy)pyrido[4,3-d]pyrimidin-4-yl)-3-azabicycle[3.2.1]octan-6-ol] |
|  |  | < 2 nM | < 2 nM | 2840 nM | 33 nM | < 2 nM | 74 nM | < 2 nM | 2 nM |  |  | 3 nM | CCc1c(F)ccc2cc(O)cc(-c3ncc4c(N5C[C@@H]6C[C@H](C5)[C@H](O)C6)nc(OCC56CCCN5C(C)CC6)nc4c3F)c12 (stereo partly drawn) [Example 928, (1R,5R,6R)-3-(7-(8-ethyl-7-fluoro-3-hydroxynaphthalen-1-yl)-8-fluoro-2-((3-methyltetrahydro-1H-pyrrolizin-7a(5H)-yl)methoxy)pyrido[4,3-d]pyrimidin-4-yl)-3-azabicyclo[3.2.1]octan-6-ol] |
| 10 nM | 43 nM | < 2 nM | < 2 nM |  | 72 nM | < 2 nM | 42 nM | < 2 nM | < 2 nM | 17 nM | 33 nM | 2 nM | C=C1CN2CCCC2(COc2nc(N3CCCC4(CNS(=O)(=O)N4)C3)c3cnc(-c4cc(O)cc5ccc(F)c(CC)c45)c(F)c3n2)C1 (centres unmarked) [Example 940, 7-(7-(8-ethyl-7-fluoro-3-hydroxynaphthalen-1-yl)-8-fluoro-2-((2-methylenetetrahydro-1H-pyrrolizin-7a(5H)-yl)methoxy)pyrido[4,3-d]pyrimidin-4-yl)-2-thia-1,3,7-triazaspiro[4.5]decane 2,2-dioxide] |
| 12 nM | 40 nM | 4 nM | < 2 nM |  | 29 nM | 3 nM | 79 nM | 3 nM | 6 nM | 29 nM | 46 nM | 0.2 nM | CCc1c(F)ccc2cc(O)cc(-c3ncc4c(N5C[C@@H]6C[C@H](C5)[C@H](O)C6)nc(OC[C@@H]5CC[C@H]6COCCN65)nc4c3F)c12 [Example 945, (1R,5R,6R)-3-(7-(8-ethyl-7-fluoro-3-hydroxynaphthalen-1-yl)-8-fluoro-2-(((6S,8aS)-hexahydro-1H-pyrrolo[2,1-c][1,4]oxazin-6-yl)methoxy)pyrido[4,3-d]pyrimidin-4-yl)-3-azabicyclo[3.2.1]octan-6-ol] |

Reference: US20260015350A1, “AZAQUINAZOLINE PAN-KRAS INHIBITORS” (Mirati Therapeutics, Inc., priority 2022, published 2026)
